Source: ChEMBL document CHEMBL1201862, “PubChem BioAssay data set” (2004)
Values joined by “and” are separate entries in the source; they are usually repeats but may differ in a detail not shown here. Identical values can stand only once. Active and inactive are the calls of the source.

Columns and labels:
Cytochrome P450 3A4 = Cytochrome P450 3A4 (Homo sapiens, UniProt P08684); details: Potency;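 also: confirmatory qHTS run detecting inhibitors and substrates of CYP3A4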
Streptococcus = assay: GAS UMAA2166 growth inhibition – luminescence, BacTiterGlo, counter-screen for streptokinase expression inhibitor project, dose response (AID 1915); assay type: functional, organism-based;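 also: potency for reduction of bacterial viability or growth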
[1] = target: T1, Probable nicotinate-nucleotide adenylyltransferase (Staphylococcus aureus (strain N315), UniProt P65502); assay type: functional, Staphylococcus aureus subsp. aureus N315;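 as to IC50 Mean: confirmatory dose-response retesting of NadD inhibitor hits first found in an ultra-high-throughput screen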
[2] = system: Streptococcus sp. 'group A'; assay: Streptococcus pyogenes SK(-)GAS viability under kanamycin – luminescence, BacTiterGlo, confirmation, counter-screen for streptokinase expression inhibitor project, dose response (AID 1900); assay type: functional, organism-based
Streptokinase A = target: T2, Streptokinase A (Streptococcus pyogenes serotype M1, UniProt P10520); assay: viability-normalized secreted streptokinase activity reduction – plasminogen activation absorbance, OD405, dose response (AID 1914); assay type: functional, Streptococcus pyogenes M1 GAS;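 also: secreted streptokinase activity via plasminogen activation per viability signal from cell pellet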
T2 sequence (P10520 whole entry): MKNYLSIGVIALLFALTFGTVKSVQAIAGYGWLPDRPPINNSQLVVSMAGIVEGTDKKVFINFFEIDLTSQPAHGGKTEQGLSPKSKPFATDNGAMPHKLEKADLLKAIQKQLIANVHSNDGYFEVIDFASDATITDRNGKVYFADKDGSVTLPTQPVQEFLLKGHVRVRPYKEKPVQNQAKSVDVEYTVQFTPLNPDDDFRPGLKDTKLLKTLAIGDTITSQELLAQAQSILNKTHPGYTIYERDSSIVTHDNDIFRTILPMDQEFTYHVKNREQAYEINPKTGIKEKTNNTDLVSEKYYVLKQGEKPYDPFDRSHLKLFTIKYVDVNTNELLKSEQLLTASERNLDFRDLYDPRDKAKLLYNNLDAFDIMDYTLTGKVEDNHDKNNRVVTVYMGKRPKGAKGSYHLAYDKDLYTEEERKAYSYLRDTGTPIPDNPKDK

[3] = target: T1, Probable nicotinate-nucleotide adenylyltransferase; assay type: functional, Staphylococcus aureus subsp. aureus N315; details: read-out: IC50_Mean
cells [4] = assay type: functional, cell-based
cells [5] = assay type: functional, cell-based; remark: listed apart in the source
Bcl-2-like protein 10 = target: T3, Bcl-2-like protein 10 (Homo sapiens, UniProt Q9HD36); assay: Bcl-B/TR3 peptide binding disruption – biochemical, fluorescence polarization, FITC-TR3 peptide, selectivity assay for Bfl-1 inhibitor project, primary screen (AID 748);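 also: fluorescence polarization from a fluorescein-labelled TR3 peptide binding purified Bcl-B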
T3 sequence (Q9HD36 whole entry): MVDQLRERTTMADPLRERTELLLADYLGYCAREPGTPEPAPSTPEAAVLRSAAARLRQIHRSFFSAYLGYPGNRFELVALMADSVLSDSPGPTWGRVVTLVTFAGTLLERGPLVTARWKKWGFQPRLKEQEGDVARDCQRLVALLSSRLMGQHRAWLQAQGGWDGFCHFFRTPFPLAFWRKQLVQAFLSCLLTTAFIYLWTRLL

[6] = HepG2 cell cytotoxicity, dose response, cytotoxicity control for non-replicating M. tuberculosis project (AID 489018); assay type: functional; details: Mycobacterium tuberculosis
[7] = Vero E6 cell cytotoxicity, dose response, cytotoxicity control for non-replicating M. tuberculosis project, secondary assay (AID 492998); assay type: functional, VeroE6; details: Vero C1008
[8] = THP-1 cell cytotoxicity, dose response, cytotoxicity control for non-replicating M. tuberculosis project (AID 489025); assay type: functional
cells [9] = assay type: functional
SUMO-activating enzyme = SUMO-activating enzyme (Homo sapiens, UniProt Q9UBT2); assay: blockers of UBC9-mediated SUMO conjugation – biochemical, AlphaScreen, SUMOylation inhibitor project, confirmation (AID 2018); assay type: functional
[10] = Trypanosoma cruzi growth suppression in host cells – NIH3T3 host cells, beta-gal luminescence, confirmation (AID 2044); assay type: functional, cell-based;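 also: intracellular parasites grown in NIH/3T3 mouse fibroblasts as host cells; luminescent beta-galactosidase reporter signal from transgenic T. cruzi replicating inside host cells; inhibitors lower the luminescence signal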
[11] = target: T4, Mannose-6-phosphate isomerase (Homo sapiens, UniProt P34949); assay: MPI enzyme activity inhibition – biochemical, fluorescence intensity, coupled assay, primary screen (AID 1209)
T4 sequence (P34949 whole entry): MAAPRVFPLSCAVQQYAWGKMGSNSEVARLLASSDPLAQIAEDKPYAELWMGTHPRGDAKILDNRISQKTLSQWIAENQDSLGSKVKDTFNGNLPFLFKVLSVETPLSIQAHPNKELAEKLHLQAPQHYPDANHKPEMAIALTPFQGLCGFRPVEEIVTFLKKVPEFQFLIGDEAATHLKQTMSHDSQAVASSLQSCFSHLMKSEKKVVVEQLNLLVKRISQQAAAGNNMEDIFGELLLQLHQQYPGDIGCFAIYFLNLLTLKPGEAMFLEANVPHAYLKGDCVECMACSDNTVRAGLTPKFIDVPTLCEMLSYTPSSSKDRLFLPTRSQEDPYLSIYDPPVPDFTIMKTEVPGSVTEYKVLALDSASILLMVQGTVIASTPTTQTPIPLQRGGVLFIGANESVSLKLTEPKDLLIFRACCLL

[12] = NIH3T3 cell viability loss – ATP luminescence, mouse fibroblasts, counter-screen, dose response (AID 2010); assay type: functional, cell-based;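 also: cells exposed to compound for about 90 hours before reading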
[13] = target: T5, Microphthalmia-associated transcription factor (Homo sapiens, UniProt O75030); assay: reducers of TRPM1 reporter luminescence, concentration series – cell-based, SK-MEL-5, cherry-picked, set 3, MITF inhibitor project, dose response (AID 493073); assay type: functional;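 also: SK-MEL-5 melanoma cells with luciferase driven by the MITF target TRPM1 promoter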
T5 sequence (O75030 whole entry): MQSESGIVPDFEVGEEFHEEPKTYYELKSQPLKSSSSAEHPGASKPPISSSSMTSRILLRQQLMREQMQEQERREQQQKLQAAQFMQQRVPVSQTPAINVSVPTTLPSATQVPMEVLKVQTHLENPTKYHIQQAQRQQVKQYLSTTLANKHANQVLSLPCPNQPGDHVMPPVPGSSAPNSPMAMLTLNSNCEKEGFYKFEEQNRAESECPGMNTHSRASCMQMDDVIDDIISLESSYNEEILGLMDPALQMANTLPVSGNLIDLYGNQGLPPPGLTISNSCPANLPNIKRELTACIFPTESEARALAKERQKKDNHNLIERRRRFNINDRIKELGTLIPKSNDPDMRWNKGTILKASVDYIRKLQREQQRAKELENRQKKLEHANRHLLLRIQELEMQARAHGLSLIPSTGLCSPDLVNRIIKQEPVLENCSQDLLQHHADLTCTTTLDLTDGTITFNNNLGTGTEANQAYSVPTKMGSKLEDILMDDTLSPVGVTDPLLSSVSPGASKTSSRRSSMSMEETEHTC

Large T antigen = Large T antigen (Simian virus 40, UniProt P03070); assay type: functional, Betapolyomavirus macacae;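 also: Confirmatory-stage PubChem screen for compounds that inhibit SV40 T antigen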
[14] = target: DNA dC->dU-editing enzyme APOBEC-3G (Homo sapiens, UniProt Q9HC16); assay: Dose Response confirmation of small molecule APOBEC3G DNA Deaminase Inhibitors via a fluorescence-based single-stranded DNA deaminase assay. [Related pubchem assays (depositor defined):AID493012, AID493028]; assay type: functional
[15] = Luminescence Cell-Based Dose Retest to Confirm Inhibitors of Cancer Stem Cells. [Related pubchem assays (depositor defined):AID2717, AID2721]; assay type: functional; details: Homo sapiens
[16] = target: T6, Ubiquitin-conjugating enzyme E2 N (Homo sapiens, UniProt P61088); assay type: functional;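 also: Dose-response confirmation in a TR-FRET assay detecting UBC13-driven polyubiquitin chain formation, inhibition measured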
T6 sequence (P61088 whole entry): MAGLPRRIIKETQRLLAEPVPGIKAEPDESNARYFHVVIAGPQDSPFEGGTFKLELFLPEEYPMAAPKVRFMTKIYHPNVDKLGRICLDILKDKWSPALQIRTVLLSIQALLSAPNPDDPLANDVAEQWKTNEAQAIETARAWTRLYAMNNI

[17] = target: T7, Tyrosyl-DNA phosphodiesterase 2 (Homo sapiens, UniProt O95551); assay: potency against TDP2 phosphodiesterase activity – biochemical, epi absorbance, IC50, dose response (AID 743297)
T7 sequence (O95551 whole entry): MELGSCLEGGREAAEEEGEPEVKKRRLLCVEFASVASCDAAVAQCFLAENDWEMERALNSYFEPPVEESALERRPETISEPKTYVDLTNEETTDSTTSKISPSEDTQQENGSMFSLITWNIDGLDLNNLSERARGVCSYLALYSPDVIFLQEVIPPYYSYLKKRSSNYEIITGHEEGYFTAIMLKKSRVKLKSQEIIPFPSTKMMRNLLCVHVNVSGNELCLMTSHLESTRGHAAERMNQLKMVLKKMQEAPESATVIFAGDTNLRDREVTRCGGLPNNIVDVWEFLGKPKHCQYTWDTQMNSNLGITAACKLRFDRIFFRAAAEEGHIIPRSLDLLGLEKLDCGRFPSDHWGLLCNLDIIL

[18] = target: T8, Calpain-2 catalytic subunit (Sus scrofa, UniProt P43367); assay: m-calpain protease blockers, concentration series – biochemical, fluorogenic peptide substrate, dose response (AID 1420); assay type: functional
T8 sequence (P43367 whole entry): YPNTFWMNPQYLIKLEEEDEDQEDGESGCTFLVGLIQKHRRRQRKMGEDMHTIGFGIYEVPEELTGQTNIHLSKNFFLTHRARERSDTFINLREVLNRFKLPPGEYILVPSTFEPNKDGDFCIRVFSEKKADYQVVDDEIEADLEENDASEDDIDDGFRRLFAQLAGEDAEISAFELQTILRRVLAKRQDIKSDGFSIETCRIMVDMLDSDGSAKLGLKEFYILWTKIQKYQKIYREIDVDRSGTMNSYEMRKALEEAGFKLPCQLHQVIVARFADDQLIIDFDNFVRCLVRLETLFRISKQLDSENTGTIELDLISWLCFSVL

Cytochrome P450 3A4, sequence (P08684 whole entry): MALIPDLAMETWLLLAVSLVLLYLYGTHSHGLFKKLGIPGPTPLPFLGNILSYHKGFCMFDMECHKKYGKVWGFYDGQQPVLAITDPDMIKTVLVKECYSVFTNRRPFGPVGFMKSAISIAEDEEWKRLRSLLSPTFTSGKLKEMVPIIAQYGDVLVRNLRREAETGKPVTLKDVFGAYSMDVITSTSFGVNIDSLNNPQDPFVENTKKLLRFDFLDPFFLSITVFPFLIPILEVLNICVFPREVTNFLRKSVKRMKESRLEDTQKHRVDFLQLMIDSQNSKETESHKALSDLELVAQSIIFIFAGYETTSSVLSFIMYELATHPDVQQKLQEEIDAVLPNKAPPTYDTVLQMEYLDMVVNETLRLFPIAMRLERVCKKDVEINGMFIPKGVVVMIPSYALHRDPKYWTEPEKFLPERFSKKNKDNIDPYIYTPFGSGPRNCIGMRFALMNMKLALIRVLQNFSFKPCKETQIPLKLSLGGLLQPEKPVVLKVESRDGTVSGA
SUMO-activating enzyme, sequence (Q9UBE0 whole entry): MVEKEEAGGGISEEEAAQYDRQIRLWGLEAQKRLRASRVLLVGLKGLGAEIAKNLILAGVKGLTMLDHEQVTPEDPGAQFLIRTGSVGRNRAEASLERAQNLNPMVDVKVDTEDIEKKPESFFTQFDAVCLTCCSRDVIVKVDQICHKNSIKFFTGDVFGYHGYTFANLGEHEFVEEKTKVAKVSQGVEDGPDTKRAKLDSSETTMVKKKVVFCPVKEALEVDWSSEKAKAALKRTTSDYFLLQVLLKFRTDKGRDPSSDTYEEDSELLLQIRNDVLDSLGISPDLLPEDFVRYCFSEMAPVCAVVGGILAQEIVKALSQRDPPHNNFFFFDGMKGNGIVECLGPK
SUMO-activating enzyme, sequence (Q9UBT2 whole entry): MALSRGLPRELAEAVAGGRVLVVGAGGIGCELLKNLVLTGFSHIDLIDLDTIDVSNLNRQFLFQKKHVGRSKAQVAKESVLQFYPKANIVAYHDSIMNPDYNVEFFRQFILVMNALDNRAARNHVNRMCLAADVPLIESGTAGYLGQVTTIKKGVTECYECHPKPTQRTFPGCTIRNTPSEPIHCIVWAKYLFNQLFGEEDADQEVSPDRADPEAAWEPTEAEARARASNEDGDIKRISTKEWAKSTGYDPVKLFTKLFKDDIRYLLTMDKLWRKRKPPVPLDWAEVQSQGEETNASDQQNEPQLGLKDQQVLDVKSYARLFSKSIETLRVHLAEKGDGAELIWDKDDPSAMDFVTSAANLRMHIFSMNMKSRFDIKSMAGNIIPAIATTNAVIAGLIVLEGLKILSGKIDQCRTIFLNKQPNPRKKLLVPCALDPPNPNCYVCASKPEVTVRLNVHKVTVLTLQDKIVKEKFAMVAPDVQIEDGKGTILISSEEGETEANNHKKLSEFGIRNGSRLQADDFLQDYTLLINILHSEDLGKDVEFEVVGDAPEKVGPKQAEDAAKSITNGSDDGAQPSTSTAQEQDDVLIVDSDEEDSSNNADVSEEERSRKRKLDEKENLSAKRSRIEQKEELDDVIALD
T1 sequence (P65502 whole entry): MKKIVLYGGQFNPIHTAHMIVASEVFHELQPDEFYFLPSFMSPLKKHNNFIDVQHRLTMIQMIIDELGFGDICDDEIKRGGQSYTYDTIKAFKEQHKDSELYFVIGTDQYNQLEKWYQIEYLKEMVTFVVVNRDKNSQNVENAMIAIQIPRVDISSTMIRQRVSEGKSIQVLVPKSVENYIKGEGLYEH
DNA dC->dU-editing enzyme APOBEC-3G, sequence (Q9HC16 whole entry): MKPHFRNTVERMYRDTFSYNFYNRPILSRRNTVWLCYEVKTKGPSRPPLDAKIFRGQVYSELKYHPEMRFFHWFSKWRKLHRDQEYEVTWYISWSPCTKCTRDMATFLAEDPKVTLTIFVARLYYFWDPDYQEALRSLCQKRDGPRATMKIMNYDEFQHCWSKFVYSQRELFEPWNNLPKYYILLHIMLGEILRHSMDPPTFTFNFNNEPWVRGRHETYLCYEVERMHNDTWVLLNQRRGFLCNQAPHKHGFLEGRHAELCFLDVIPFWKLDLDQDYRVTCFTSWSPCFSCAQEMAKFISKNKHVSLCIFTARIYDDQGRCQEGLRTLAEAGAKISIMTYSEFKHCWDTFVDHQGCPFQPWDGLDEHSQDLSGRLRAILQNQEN
Large T antigen, sequence (P03070 whole entry): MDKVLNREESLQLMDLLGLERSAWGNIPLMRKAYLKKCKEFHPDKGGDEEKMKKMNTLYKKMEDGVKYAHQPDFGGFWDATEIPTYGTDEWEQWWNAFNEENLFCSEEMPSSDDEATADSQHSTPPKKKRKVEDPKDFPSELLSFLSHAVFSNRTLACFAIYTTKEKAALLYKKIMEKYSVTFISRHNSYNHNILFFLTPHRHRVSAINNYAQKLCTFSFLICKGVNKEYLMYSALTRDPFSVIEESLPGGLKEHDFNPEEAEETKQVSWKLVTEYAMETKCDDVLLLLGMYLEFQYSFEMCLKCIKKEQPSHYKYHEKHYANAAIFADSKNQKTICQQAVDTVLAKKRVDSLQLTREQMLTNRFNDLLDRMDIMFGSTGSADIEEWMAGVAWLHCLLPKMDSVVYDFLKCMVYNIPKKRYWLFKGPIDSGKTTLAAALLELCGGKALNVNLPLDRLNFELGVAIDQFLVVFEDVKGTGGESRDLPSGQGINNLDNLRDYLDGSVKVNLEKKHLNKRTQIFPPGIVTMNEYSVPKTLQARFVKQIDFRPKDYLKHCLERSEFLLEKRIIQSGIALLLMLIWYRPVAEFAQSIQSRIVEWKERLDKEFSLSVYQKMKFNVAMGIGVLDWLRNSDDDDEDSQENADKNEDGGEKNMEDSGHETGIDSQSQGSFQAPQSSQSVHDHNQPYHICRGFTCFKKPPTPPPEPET

In the case of `CC1CCC2C(=O)OC(Cc3ccccc3)CN2C1c1ccc(Br)cc1` (stereo not given), the AC50 (Cytochrome P450 3A4) is reported as 3.98 µM (inconclusive) and 5.01 µM (inconclusive).

For `Cc1ccnc(NS(=O)(=O)c2ccc(NC(=O)c3cc(-c4ccc(Br)cc4)nc4ccccc34)cc2)n1`, the EC50 (Streptococcus) was 68.9 µM (active), the IC50 [1] was 7.03 µM (active) and the EC50 [2] was 7.74 µM (active). For the same compound, the EC50 (Streptokinase A) was 5.84 µM (inconclusive) and the IC50 [3] was 20.9 µM (active).

For `O=C(NC(c1ccccc1)c1ccccc1)C1CCCO1` (stereo not given), the EC50 (cells [4]) was > 350 µM (not active) and the EC50 (cells [5]) was > 350 µM (not active).

In the case of `COc1ccc(OC)c(NC2=NCCCS2)c1`, the EC50 (cells [4]) is reported as > 350 µM (not active) and the EC50 (cells [5]) is reported as > 350 µM (not active).

In the case of `CCC(=O)Nc1cccc(NC(C)=O)c1`, the IC50 (Bcl-2-like protein 10) is reported as 56.6 µM (inactive).

With `COc1cccc(C(=O)N2N=C(c3ccccn3)CC2(O)C(F)(F)F)c1` (stereo not given) the CC50 [6] was > 20 µM (active), the CC50 [7] was 10.1 µM (active) and the CC50 [8] was 9.99 µM (active). For the same compound, the IC50 (cells [9]) was 8.68 µM (active).

For `O=C(Nc1ccc2nc3ccccc3nc2c1)c1ccc(Br)cc1`, the IC50 (SUMO-activating enzyme) was 26.7 µM (active).

With `O=C1c2ccccc2C(=O)c2c1cccc2N1CCN(CCO)CC1` the IC50 (Bcl-2-like protein 10) was > 25 µM (inactive).

For `CCCCNC(=O)COC(=O)c1ccc(Cl)c(S(=O)(=O)N2CCCC2)c1`, the IC50 (Bcl-2-like protein 10) was > 100 µM (inactive).

With `Cc1nc(C(=O)NNC(=O)c2ccc(Cl)cc2)c(C(F)(F)F)o1` the CC50 [6] was > 20 µM (active), the CC50 [7] was > 20 µM (active) and the CC50 [8] was 27.8 µM (active). The IC50 (cells [9]) was 44.9 µM (active).

With `CN(C)C(S)=Nc1nc2ccccc2s1` the EC50 [10] was 2.48 µM (active), the IC50 [11] was 3.79 µM (active) and the EC50 [12] was > 60 µM (not active).

With `CCC[n+]1c(C)sc2c3c(ccc21)CCCC3` the AC50 [13] was 9.87 µM (active).

With `Cc1c(N2C(=O)/C(=C\c3ccccc3O)SC2=S)c(=O)n(-c2ccccc2)n1C` the IC50 (Large T antigen) was 45.2 µM (active) and the IC50 [14] was 46.2 µM (active).

For `CCN(CC)CCCC(C)n1c(-c2ccccc2)nc2c(NCCOC)nc(C)nc21` (stereo not given), the AC50 (Cytochrome P450 3A4) was 20 µM (inconclusive).

For `COc1ccc(C(=O)Nc2ccc(-c3nnn(CC(=O)NCc4ccco4)n3)cc2)cc1`, the IC50 (SUMO-activating enzyme) was 43.1 µM (active).

In the case of `OC(CNCC1CCCO1)Cn1c2ccc(Cl)cc2c2cc(Cl)ccc21` (stereo not given), the CC50 [6] is reported as 7.5 µM (active), the AC50 [15] is reported as 3.42 µM (active) and the CC50 [7] is reported as 11.2 µM (active). For the same compound, the CC50 [8] was 9.03 µM (active), the IC50 (cells [9]) was 8.48 µM (active) and the IC50 [16] was > 20 µM (inactive).

For `O=C(COC(=O)c1ccccc1Nc1ccccc1)NCc1ccccc1Cl`, the EC50 (cells [4]) was > 350 µM (not active) and the EC50 (cells [5]) was > 350 µM (not active).

In the case of `COC(=O)C1=C(C)N(Cc2ccccc2)[C@]23O[C@](C(=O)OC)(C(=O)N2C1c1ccccc1)C1C(=O)N(c2ccccc2)C(=O)C13` (stereo not given in full), the AC50 (Cytochrome P450 3A4) is reported as 5.01 µM (inconclusive) and 3.98 µM (inconclusive).

With `O=C(Nc1c(-c2ccc3c(c2)OCO3)[nH][nH]c1=O)c1ccc2c(c1)OCO2` the IC50 [17] was > 129 µM (inactive).

In the case of `Cc1cc(C(=O)N/N=C/c2ccc([N+](=O)[O-])s2)[nH]n1`, the EC50 [10] is reported as 0.612 µM (active), the EC50 (Streptococcus) is reported as 2.69 µM (active) and the IC50 [18] is reported as 6.84 µM (not active). The CC50 [7] was 16.9 µM (active), the CC50 [8] was > 40 µM (active) and the EC50 [2] was 1.86 µM (active). The EC50 [12] was > 60 µM (not active) and the IC50 (cells [9]) was 8.88 µM (active).

With `C[C@@H](CO)NC(=O)[C@@H]1C=C2c3cccc4[nH]cc(c34)C[C@H]2N(C)C1` [ERGONOVINE] the AC50 (Cytochrome P450 3A4) was 20 µM (inconclusive).

For `OCC(O)Cc1ccc2c(c1)OCO2` (stereo not given) [SAFROLGLYCOL], the AC50 (Cytochrome P450 3A4) was 39.8 µM (inconclusive).
